Read-outs that look alike come from different tables or passages of the source.
Key:
Details in all cases: Part II, 1 g/l in apple juice pH 4.5, 25° C.
Thermophilic bacilli = system: Thermophilic bacilli
Gram-positive bacteria = system: Gram-positive bacteria
Molds I = system: Molds I
Yeasts = system: Yeasts
Bacilli = system: Bacilli
Lactic acid bacteria = system: Lactic acid bacteria
Molds II = system: Molds II
Acetic acid bacteria = system: Acetic acid bacteria
Gram-negative bacteria = system: Gram-negative bacteria
Clostridia = system: Clostridia
[1] = 1 day after inoculation (1.3 × 10^4)
[2] = 3 days after inoculation (1.3 × 10^4)
[3] = 7 days after inoculation (1.3 × 10^4)
[4] = 14 days after inoculation (1.3 × 10^4)
[5] = 1 day after inoculation (2.1 × 10^4)
[6] = 3 days after inoculation (2.1 × 10^4)
[7] = 7 days after inoculation (2.1 × 10^4)
[8] = 14 days after inoculation (2.1 × 10^4)
[9] = 1 day after inoculation (2.2 × 10^4)
[10] = 3 days after inoculation (2.2 × 10^4)
[11] = 7 days after inoculation (2.2 × 10^4)
[12] = 14 days after inoculation (2.2 × 10^4)
[13] = 1 day after inoculation (2.6 × 10^4)
[14] = 3 days after inoculation (2.6 × 10^4)
[15] = 7 days after inoculation (2.6 × 10^4)
[16] = 14 days after inoculation (2.6 × 10^4)
[17] = 1 day after inoculation (3.3 × 10^4)
[18] = 3 days after inoculation (3.3 × 10^4)
[19] = 7 days after inoculation (3.3 × 10^4)
[20] = 14 days after inoculation (3.3 × 10^4)
[21] = 1 day after inoculation (2.7 × 10^4)
[22] = 3 days after inoculation (2.7 × 10^4)
[23] = 7 days after inoculation (2.7 × 10^4)
[24] = 14 days after inoculation (2.7 × 10^4)
[25] = 1 day after inoculation (2.5 × 10^4)
[26] = 3 days after inoculation (2.5 × 10^4)
[27] = 7 days after inoculation (2.5 × 10^4)
[28] = 14 days after inoculation (2.5 × 10^4)
[29] = 1 day after inoculation (2.8 × 10^4)
[30] = 3 days after inoculation (2.8 × 10^4)
[31] = 7 days after inoculation (2.8 × 10^4)
[32] = 14 days after inoculation (2.8 × 10^4)

CC(=O)[O-].CC(=O)[O-].[Ca+2] [Calcium Acetate]
Number of surviving microorganisms per g of contaminated sample, Thermophilic bacilli (Thermophilic bacilli; [1]): 2.1 × 10^3 CFU/g | Number of surviving microorganisms per g of contaminated sample, Thermophilic bacilli (Thermophilic bacilli; [2]): 6.0 × 10^2 CFU/g | Number of surviving microorganisms per g of contaminated sample, Thermophilic bacilli (Thermophilic bacilli; [3]): <10 CFU/g | Number of surviving microorganisms per g of contaminated sample, Thermophilic bacilli (Thermophilic bacilli; [4]): <10 CFU/g | Number of surviving microorganisms per g of contaminated sample, Gram-positive bacteria (Gram-positive bacteria; [5]): 1.1 × 10^5 CFU/g | Number of surviving microorganisms per g of contaminated sample, Gram-positive bacteria (Gram-positive bacteria; [6]): 9.0 × 10^4 CFU/g | Number of surviving microorganisms per g of contaminated sample, Gram-positive bacteria (Gram-positive bacteria; [7]): 6.7 × 10^3 CFU/g | Number of surviving microorganisms per g of contaminated sample, Gram-positive bacteria (Gram-positive bacteria; [8]): 5.9 × 10^3 CFU/g | Number of surviving microorganisms per g of contaminated sample, Molds I (Molds I; [9]): 1.1 × 10^4 CFU/g | Number of surviving microorganisms per g of contaminated sample, Molds I (Molds I; [10]): 2.2 × 10^3 CFU/g | Number of surviving microorganisms per g of contaminated sample, Molds I (Molds I; [11]): 7.6 × 10^3 CFU/g | Number of surviving microorganisms per g of contaminated sample, Molds I (Molds I; [12]): 4.5 × 10^4 CFU/g | Number of surviving microorganisms per g of contaminated sample, Yeasts (Yeasts; [13]): 1.3 × 10^6 CFU/g | Number of surviving microorganisms per g of contaminated sample, Yeasts (Yeasts; [14]): 2.5 × 10^6 CFU/g | Number of surviving microorganisms per g of contaminated sample, Yeasts (Yeasts; [15]): >3.0 × 10^6 CFU/g | Number of surviving microorganisms per g of contaminated sample, Yeasts (Yeasts; [16]): >3.0 × 10^6 CFU/g | Number of surviving microorganisms per g of contaminated sample, Bacilli (Bacilli; [17]): 1.6 × 10^3 CFU/g | Number of surviving microorganisms per g of contaminated sample, Bacilli (Bacilli; [18]): 1.0 × 10^3 CFU/g | Number of surviving microorganisms per g of contaminated sample, Bacilli (Bacilli; [19]): 1.8 × 10^3 CFU/g | Number of surviving microorganisms per g of contaminated sample, Bacilli (Bacilli; [20]): 1.8 × 10^3 CFU/g | Number of surviving microorganisms per g of contaminated sample, Lactic acid bacteria (Lactic acid bacteria; [21]): 5.6 × 10^5 CFU/g | Number of surviving microorganisms per g of contaminated sample, Lactic acid bacteria (Lactic acid bacteria; [22]): >3.0 × 10^6 CFU/g | Number of surviving microorganisms per g of contaminated sample, Lactic acid bacteria (Lactic acid bacteria; [23]): >3.0 × 10^6 CFU/g | Number of surviving microorganisms per g of contaminated sample, Lactic acid bacteria (Lactic acid bacteria; [24]): 2.4 × 10^4 CFU/g | Number of surviving microorganisms per g of contaminated sample, Molds II (Molds II; [25]): 1.5 × 10^4 CFU/g | Number of surviving microorganisms per g of contaminated sample, Molds II (Molds II; [26]): 1.2 × 10^4 CFU/g | Number of surviving microorganisms per g of contaminated sample, Molds II (Molds II; [27]): >1.0 × 10^5 CFU/g | Number of surviving microorganisms per g of contaminated sample, Molds II (Molds II; [28]): 3.5 × 10^4 CFU/g | Number of surviving microorganisms per g of contaminated sample, Acetic acid bacteria (Acetic acid bacteria; [29]): 8.4 × 10^5 CFU/g | Number of surviving microorganisms per g of contaminated sample, Acetic acid bacteria (Acetic acid bacteria; [30]): >3.0 × 10^6 CFU/g | Number of surviving microorganisms per g of contaminated sample, Acetic acid bacteria (Acetic acid bacteria; [31]): >3.0 × 10^6 CFU/g | Number of surviving microorganisms per g of contaminated sample, Acetic acid bacteria (Acetic acid bacteria; [32]): 1.5 × 10^6 CFU/g | Number of surviving microorganisms per g of contaminated sample, Gram-negative bacteria (Gram-negative bacteria; [21]): 1.7 × 10^4 CFU/g | Number of surviving microorganisms per g of contaminated sample, Gram-negative bacteria (Gram-negative bacteria; [22]): 1.3 × 10^4 CFU/g | Number of surviving microorganisms per g of contaminated sample, Gram-negative bacteria (Gram-negative bacteria; [23]): 2.2 × 10^3 CFU/g | Number of surviving microorganisms per g of contaminated sample, Gram-negative bacteria (Gram-negative bacteria; [24]): <100 CFU/g

Calcium Sorbate
Number of surviving microorganisms per g of contaminated sample, Thermophilic bacilli (Thermophilic bacilli; [1]): 1.4 × 10^3 CFU/g | Number of surviving microorganisms per g of contaminated sample, Thermophilic bacilli (Thermophilic bacilli; [2]): 5.0 × 10^2 CFU/g | Number of surviving microorganisms per g of contaminated sample, Thermophilic bacilli (Thermophilic bacilli; [3]): <10 CFU/g | Number of surviving microorganisms per g of contaminated sample, Thermophilic bacilli (Thermophilic bacilli; [4]): <10 CFU/g | Number of surviving microorganisms per g of contaminated sample, Gram-positive bacteria (Gram-positive bacteria; [5]): 2.1 × 10^4 CFU/g | Number of surviving microorganisms per g of contaminated sample, Gram-positive bacteria (Gram-positive bacteria; [6]): 6.4 × 10^3 CFU/g | Number of surviving microorganisms per g of contaminated sample, Gram-positive bacteria (Gram-positive bacteria; [7]): <10 CFU/g | Number of surviving microorganisms per g of contaminated sample, Gram-positive bacteria (Gram-positive bacteria; [8]): <10 CFU/g | Number of surviving microorganisms per g of contaminated sample, Molds I (Molds I; [9]): 3.9 × 10^3 CFU/g | Number of surviving microorganisms per g of contaminated sample, Molds I (Molds I; [10]): <100 CFU/g | Number of surviving microorganisms per g of contaminated sample, Molds I (Molds I; [11]): <10 CFU/g | Number of surviving microorganisms per g of contaminated sample, Molds I (Molds I; [12]): <10 CFU/g | Number of surviving microorganisms per g of contaminated sample, Clostridia (Clostridia; 1 day after inoculation (2.9 × 10^4)): 2.2 × 10^3 CFU/g | Number of surviving microorganisms per g of contaminated sample, Clostridia (Clostridia; 3 days after inoculation (2.9 × 10^4)): <100 CFU/g | Number of surviving microorganisms per g of contaminated sample, Clostridia (Clostridia; 7 days after inoculation (2.9 × 10^4)): <10 CFU/g | Number of surviving microorganisms per g of contaminated sample, Clostridia (Clostridia; 14 days after inoculation (2.9 × 10^4)): <10 CFU/g | Number of surviving microorganisms per g of contaminated sample, Yeasts (Yeasts; [13]): 2.3 × 10^4 CFU/g | Number of surviving microorganisms per g of contaminated sample, Yeasts (Yeasts; [14]): 1.0 × 10^4 CFU/g | Number of surviving microorganisms per g of contaminated sample, Yeasts (Yeasts; [15]): <100 CFU/g | Number of surviving microorganisms per g of contaminated sample, Yeasts (Yeasts; [16]): <10 CFU/g | Number of surviving microorganisms per g of contaminated sample, Bacilli (Bacilli; [17]): 2.8 × 10^3 CFU/g | Number of surviving microorganisms per g of contaminated sample, Bacilli (Bacilli; [18]): 1.8 × 10^3 CFU/g | Number of surviving microorganisms per g of contaminated sample, Bacilli (Bacilli; [19]): 1.3 × 10^3 CFU/g | Number of surviving microorganisms per g of contaminated sample, Bacilli (Bacilli; [20]): 1.2 × 10^3 CFU/g | Number of surviving microorganisms per g of contaminated sample, Lactic acid bacteria (Lactic acid bacteria; [21]): 3.4 × 10^3 CFU/g | Number of surviving microorganisms per g of contaminated sample, Lactic acid bacteria (Lactic acid bacteria; [22]): 2.0 × 10^3 CFU/g | Number of surviving microorganisms per g of contaminated sample, Lactic acid bacteria (Lactic acid bacteria; [23]): <100 CFU/g | Number of surviving microorganisms per g of contaminated sample, Lactic acid bacteria (Lactic acid bacteria; [24]): <10 CFU/g | Number of surviving microorganisms per g of contaminated sample, Molds II (Molds II; [25]): 6.5 × 10^3 CFU/g | Number of surviving microorganisms per g of contaminated sample, Molds II (Molds II; [26]): <100 CFU/g | Number of surviving microorganisms per g of contaminated sample, Molds II (Molds II; [27]): <10 CFU/g | Number of surviving microorganisms per g of contaminated sample, Molds II (Molds II; [28]): <10 CFU/g | Number of surviving microorganisms per g of contaminated sample, Acetic acid bacteria (Acetic acid bacteria; [29]): 1.5 × 10^4 CFU/g | Number of surviving microorganisms per g of contaminated sample, Acetic acid bacteria (Acetic acid bacteria; [30]): 1.4 × 10^4 CFU/g | Number of surviving microorganisms per g of contaminated sample, Acetic acid bacteria (Acetic acid bacteria; [31]): 2.0 × 10^4 CFU/g | Number of surviving microorganisms per g of contaminated sample, Acetic acid bacteria (Acetic acid bacteria; [32]): 1.3 × 10^5 CFU/g | Number of surviving microorganisms per g of contaminated sample, Gram-negative bacteria (Gram-negative bacteria; [21]): 1.7 × 10^4 CFU/g | Number of surviving microorganisms per g of contaminated sample, Gram-negative bacteria (Gram-negative bacteria; [22]): 1.0 × 10^4 CFU/g | Number of surviving microorganisms per g of contaminated sample, Gram-negative bacteria (Gram-negative bacteria; [23]): 1.9 × 10^3 CFU/g | Number of surviving microorganisms per g of contaminated sample, Gram-negative bacteria (Gram-negative bacteria; [24]): 2.7 × 10^3 CFU/g

From patent US6693216B2, “Calcium double salts” (Nutrinova Nutrition Specialties & Food Ingredients GmbH, priority 2000, dated 2004)
